From PubChem BioAssay (NCI)
Values joined by “and” are separate entries in the source; they are usually repeats but may differ in a detail not shown here. Identical values can stand only once.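 A five-concentration, 48-hour dose response in 96-well plates underlies each endpoint, interpolated linearly between surrounding concentrations. GI50: concentration for 50% inhibition of growth. Definition used: TGI = concentration required for complete inhibition of growth.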

Legend:
Assay in all cases: inhibition of tumour cell growth, NCI panel, 48 h
MCF7 breast = system: MCF7 breast
SR leukemia = system: SR leukemia
HL-60(TB) leukemia = system: HL-60(TB) leukemia
NCI-H460 lung = system: NCI-H460 lung
OVCAR-4 ovarian = system: OVCAR-4 ovarian
M14 melanoma = system: M14 melanoma
SF-539 CNS = system: SF-539 CNS
MDA-MB-231 breast = system: MDA-MB-231 breast
HCC-2998 colon = system: HCC-2998 colon

SMILES	GI50 (MCF7 breast)	TGI (MCF7 breast)	GI50 (SR leukemia)	TGI (SR leukemia)	GI50 (HL-60(TB) leukemia)	TGI (HL-60(TB) leukemia)	GI50 (NCI-H460 lung)	TGI (NCI-H460 lung)	GI50 (OVCAR-4 ovarian)	TGI (OVCAR-4 ovarian)	GI50 (M14 melanoma)	TGI (M14 melanoma)	GI50 (SF-539 CNS)	TGI (SF-539 CNS)	GI50 (MDA-MB-231 breast)	TGI (MDA-MB-231 breast)	GI50 (HCC-2998 colon)	TGI (HCC-2998 colon)
CC(=O)NCCc1c2c(c3nccc4c3c1Nc1ccccc1-4)OCS2	0.801 µM	8.47 µM	0.0354 µM	> 100 µM	2.97 µM	14.3 µM	0.498 µM	9.98 µM	1.92 µM	6.02 µM	1 µM	4.57 µM	6.63 µM	25.1 µM	0.594 µM	6.61 µM	45.8 µM	> 100 µM
CCOC(=O)c1ccc2[nH]c(-c3ccc(S(=O)(=O)F)cc3)cc(=O)c2c1	–	> 100 µM	–	> 100 µM	–	> 100 µM	–	> 100 µM	–	> 100 µM	–	> 100 µM	–	> 100 µM	–	> 100 µM	–	40 µM
O=C1c2ccccc2-c2c1c1ccccc1c(=O)n2CCCCNCCCn1c2c(c3ccccc3c1=O)C(=O)c1ccccc1-2	0.345 µM	6.25 µM	0.005 µM	0.0273 µM	8.19 µM	23.3 µM	0.0484 µM	0.687 µM	0.683 µM	15.5 µM	0.76 µM	4.18 µM	0.492 µM	2.07 µM	0.319 µM	1.34 µM	0.698 µM	1.4 µM
CC12CCC3C(CCC4Cc5[nH]c6ccccc6c5CC43C)C1CCC2O (stereo not drawn)	0.373 µM	> 100 µM	0.342 µM	1.32 µM	0.381 µM	2.33 µM	0.609 µM	> 100 µM	1.35 µM	> 100 µM	0.753 µM	> 19.8 µM	1.2 µM	3.77 µM	2.09 µM	7.16 µM	0.633 µM	2.54 µM
Nc1c(C(=O)c2cccc(CCCN3CCOCC3)c2)cnn1-c1ccc(F)cc1	> 25 µM	> 25 µM	> 25 µM	> 25 µM	> 25 µM	> 25 µM	> 25 µM	> 25 µM	> 25 µM	> 25 µM	> 25 µM	> 25 µM	> 25 µM	> 25 µM	> 25 µM	> 25 µM	> 25 µM	> 25 µM
COc1cc(C(=O)/C=C/c2c(C)n([O-])c3ccc(C)cc3[n+]2=O)cc(OC)c1OC	3.3 µM	12.5 µM	2.15 µM	7.42 µM	2.32 µM	6.15 µM	14.7 µM	36.9 µM	6.68 µM	24 µM	4.27 µM	10.3 µM	2.84 µM	7.12 µM	10.6 µM	> 100 µM	17 µM	31 µM
Cc1cc2nc(C(C)C(=O)c3ccc(Cl)cc3)c(=O)[nH]c2cc1C (stereo not drawn)	–	> 100 µM	–	97.6 µM	–	> 100 µM	–	> 100 µM	–	> 100 µM	–	> 100 µM	–	93.1 µM	–	> 100 µM	–	33.1 µM
O=[N+]([O-])c1ccc(S(=O)(=O)Cc2ccccc2)c([N+](=O)[O-])c1	–	3.65 µM	–	6.03 µM	–	4.03 µM	–	9.43 µM	–	5.77 µM	–	3.37 µM	–	3.8 µM	–	5.99 µM	–	19.7 µM
COc1cc(NS(C)(=O)=O)ccc1Nc1c2ccc([N+](=O)[O-])cc2nc2c(C)cccc12	0.0133 µM	12.2 µM	< 0.012 µM	5.82 µM	0.302 µM	3.57 µM	–	1.59 µM	3.32 µM	19.1 µM	0.228 µM	11.2 µM	0.241 µM	1.97 µM	3.82 µM	16.4 µM	2.07 µM	7.28 µM
CCSCC1CC(O)(c2ccccc2)C(c2ccccc2)C(c2ccc(Cl)cc2)O1 (stereo not drawn)	1.85 µM	5.35 µM	2.15 µM	5.99 µM	4.08 µM	8.28 µM	1.42 µM	3.44 µM	1.66 µM	4.35 µM	1.81 µM	3.4 µM	1.76 µM	3.56 µM	1.82 µM	4.41 µM	1.82 µM	3.58 µM
COc1ccc(C(=O)c2cc(OC)c(OC)c(OC)c2)cc1	–	> 100 µM	–	4.49 µM	–	13.2 µM	–	17.2 µM	–	> 100 µM	–	> 100 µM	–	1.28 µM	–	> 100 µM	–	> 14 µM
Cc1ccc([N+](=O)[O-])cc1NC(=O)Nc1cccc(F)c1	3.63 µM	> 100 µM	5.63 µM	64.6 µM	4.02 µM	> 100 µM	3.09 µM	16.1 µM	3.96 µM	51.9 µM	22.1 µM	> 100 µM	7.2 µM	33.6 µM	13.3 µM	96.6 µM	4.02 µM	> 100 µM
COc1ccc(C2CC(c3cc(OC)c(OC)c(OC)c3)=NO2)cc1OCCCCOc1cc2c(cc1OC)C(=O)N1CCC[C@H]1C=N2 (stereo partly drawn)	1.75 µM	12.3 µM	1.12 µM	3.26 µM	1.9 µM	4.54 µM	1.85 µM	4 µM	2.07 µM	5.04 µM	1.73 µM	3.45 µM	1.8 µM	3.46 µM	1.15 µM	2.61 µM	1.58 µM	3.04 µM
CCN1CCN(Cc2ccc(-c3cc4c(N[C@H](C)c5ccccc5)ncnc4[nH]3)cc2)CC1	2.78 µM and 2.68 µM	15.9 µM and > 10 µM	2.34 µM and 2.05 µM	6.17 µM and 4.92 µM	2.83 µM and 4 µM	7.91 µM and > 10 µM	5.55 µM and 6.86 µM	23.3 µM and > 10 µM	4.71 µM and > 10 µM	23 µM and > 10 µM	1.84 µM and 1.92 µM	3.77 µM and 4.4 µM	2.07 µM and 1.9 µM	5.67 µM and 5.14 µM	2.08 µM and 2.88 µM	8.3 µM and > 10 µM	7.63 µM and > 10 µM	22.3 µM and > 10 µM
CCNC(=O)[C@@H]1CCCN2C(=O)CC[C@H](NC(=O)[C@H](Cc3ccc(OP(=O)(O)O)cc3)NC(C)=O)C(=O)N12	> 25 µM	> 25 µM	> 25 µM	> 25 µM	> 25 µM	> 25 µM	> 25 µM	> 25 µM	> 25 µM	> 25 µM	> 25 µM	> 25 µM	> 25 µM	> 25 µM	> 25 µM	> 25 µM	> 25 µM	> 25 µM
